# Experimental data as given in publication PMC6651268, “The 3S Enantiomer Drives Enolase Inhibitory Activity in SF2312 and Its Analogues” (Molecules, 2019).
# Like-named read-outs stand apart in the source and are kept apart here.
# What was measured:
# ENO2 [1] = biological target: T1, ENO2 (Homo sapiens, UniProt P09104); assay: X-ray structure of ENO2 crystals soaked with inhibitor; type: binding; design: His tag (only implied by NiNTA purification); made in house; conditions: apo ENO2 crystals soaked with 2 mM compound; unbiased 2Fo-Fc omit map
# T1 sequence (P09104 whole entry): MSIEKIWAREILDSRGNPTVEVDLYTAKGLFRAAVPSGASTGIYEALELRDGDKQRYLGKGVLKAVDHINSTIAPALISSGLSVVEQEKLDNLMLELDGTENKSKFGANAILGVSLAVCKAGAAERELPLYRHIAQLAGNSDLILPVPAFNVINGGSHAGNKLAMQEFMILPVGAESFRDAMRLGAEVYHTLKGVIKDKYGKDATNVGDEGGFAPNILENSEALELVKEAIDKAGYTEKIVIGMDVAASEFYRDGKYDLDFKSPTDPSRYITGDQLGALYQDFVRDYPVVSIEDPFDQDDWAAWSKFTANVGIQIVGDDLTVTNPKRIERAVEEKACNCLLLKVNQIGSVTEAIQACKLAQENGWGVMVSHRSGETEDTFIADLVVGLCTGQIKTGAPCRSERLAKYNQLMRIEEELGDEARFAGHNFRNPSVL
# Procedure: MethylSF2312 was co-crystallized with Human ENO2 to determine the configuration of the active compound in the active site. Apo crystals of ENO2 were prepared using published methods and were soaked in cryoprotectant containing the racemic mixture of MethylSF2312 for 16 h prior to freezing. The resulting co-crystal structure was resolved (Table 1), with four ENO2 homodimers in the asymmetric unit of the monoclinic crystal (PDB 5EU9).
# Recombinant ENO2 protein was prepared using NiNTA affinity and size exclusion chromatography as described previously Apo crystals of Human Enolase 2 were prepared by streak seeding hanging drop solutions after mixing 0.5 μL 9.1 mg mL^−1 Enolase 2 with 0.5 μL reservoir solution (200 mM ammonium acetate, 100 mM Bis-Tris and 18–22% (w/v) PEG 3350). The hanging drops were incubated at room temperature above a 500 μL reservoir. Apo crystals were subsequently soaked overnight in 1 μL drops containing 100 mM Bis-Tis, 200 mM ammonium acetate, 32% (w/v) PEG 3350 at pH 6.5, supplemented with 2 mM racemate or pure enantiomer of MethylSF2312 compound, prior to flash freezing in liquid nitrogen. X-ray diffraction datasets were collected at 100 K using a wavelength of 1.11587 Å at the Advanced Light Source Beamline 8.3.1, equipped with ADSC Q315r detector. The diffraction images were indexed and integrated using iMOSFLM [19] and scaled using AIMLESS [20]. […]
# [2] = test system: D423 ENO1-deleted glioma cells; assay: Proliferation assay of glioma cell lines by crystal violet staining; type: cell-based, human; conditions: for toxicity against ENO1-deleted versus ENO1-intact glioma cells (in words): six days of treatment, D423 ENO1-deleted vs D423 ENO1-rescued and LN319 ENO1-WT
# From the text: The cell line D423-MG was provided by Dr. Bigner. The 1p36 homozygous deletion in D423-MG spans from the CAMTA1 to SLC25A33 genes, including ENO1. The generation of isogenic ENO1 and ENO2 ectopically rescued lines was described previously. The LN319 cell line was obtained from Cell Bank of The Department of Genomic Medicine at M.D. Anderson. Cells were routinely cultured in high glucose, glutamine, and pyruvate containing Dulbecco’s modified Eagle’s medium (DMEM) with 10% fetal bovine serum (FBS).
# Cell proliferation of glioma cell lines was assayed through crystal violet staining. Cells were seeded at 1500 cells/well in 96-well plates, and after 24 h, were treated with dilution series of enolase inhibitors, with each treatment concentration in duplicate wells. At the indicated time, cells were fixed with 10% formalin and stained with crystal violet. Dye extraction was performed using 10% acetic acid solution, and absorbance was read at 595 nm.
# ENO1 = biological target: T2, ENO1 (Homo sapiens, UniProt P06733); assay: Enolase activity, NADH-linked PK/LDH coupled fluorometric assay in native lysates of human cancer cells overexpressing ENO1; type: biochemical; conditions: for IC50: lysates of D423 cells overexpressing ENO1
# T2 construct: expressed in transfected cells; host or cells: D423-MG (ENO1-deleted human glioma) with ectopic ENO1
# T2 sequence (P06733 whole entry): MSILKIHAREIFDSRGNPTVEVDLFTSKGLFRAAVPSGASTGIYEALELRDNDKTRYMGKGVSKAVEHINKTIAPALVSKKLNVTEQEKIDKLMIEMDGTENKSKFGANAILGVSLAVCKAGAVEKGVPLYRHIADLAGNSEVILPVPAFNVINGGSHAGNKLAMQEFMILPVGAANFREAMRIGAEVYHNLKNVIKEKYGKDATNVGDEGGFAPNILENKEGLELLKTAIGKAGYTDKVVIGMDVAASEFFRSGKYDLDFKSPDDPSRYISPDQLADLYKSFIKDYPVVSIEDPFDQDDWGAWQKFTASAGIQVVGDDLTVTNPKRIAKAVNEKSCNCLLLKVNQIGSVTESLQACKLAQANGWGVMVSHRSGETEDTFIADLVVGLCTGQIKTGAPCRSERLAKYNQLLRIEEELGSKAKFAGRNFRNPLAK
# Procedure: We then determined Enolase inhibitory activity of (3R)-P1 and (3S)-P2 derived MethylSF2312 in native lysates from human cancer cells and E. coli overexpressing ENO1 and ENO2.
# (§1) Native lysates of human cell lines were prepared using 20 mM Tris HCl, 1 mM EDTA, and 1 mM β-mercaptoethanol at pH 7.4 as described previously. Enolase activity was measured using two different methods, either by a fluorometric NADH-linked assay or a direct spectrophotometric assay via formation of PEP. In the fluorescent assay, enolase activity was measured via NADH oxidation in a pyruvate kinase–lactate dehydrogenase coupled assay as previously described. The assay is conducted in 10 mM KCl, 5 mM MgSO4, 100 mM triethanolamine at pH 7.4, with 400 µM NADH and 2 mM ADP. 2-Phosphoglycerate (2-PGA), pyruvate kinase (PK) and lactate dehydrogenase (LDH) are provided in excess, with the conversion of 2-PGA to PEP by enolase being rate limiting. PEP (with ADP) is a substrate of PK; pyruvate formed by this reaction is linked to NADH oxidation by LDH. Enolase activity is determined by measuring oxidation of NADH fluorescently by excitation at 340 nm and emission at 460 nm. The substrate concentration, if not otherwise indicated, was 5 mM 2-PGA. Fluorescence was measured using the Omega Fluorescence Plate Reader (BMG Labtech). Enolase activity was measured in native lysates of E. coli. Overnight grown saturated E. coli (DH5α) liquid culture was pelleted by centrifugation, washed and resuspended in 50 µL of lysis buffer which contains 150 mM NaCl, 50 mM Tris, 1mM EDTA, 2 mM DTT and 0.025% sodium azide. PMSF (10 mM stock solution) was then added to the lysate to make the final concentration 1 mM with 1% sodium deoxycholate. The suspension was incubated at 4 °C with constant mixing. The extract was centrifuged at 4 °C, 14,000 g for 15 min. Enolase activity in E. coli native lysates was measured directly by the appearance of PEP from 2-PGA via absorption at 240 nm. The assay medium was the same, except that all the auxiliary reagents (PK/LDH, NADH, ADP) are omitted. […]
# ENO2 [3] = biological target: T1, ENO2; assay: Enolase activity, NADH-linked PK/LDH coupled fluorometric assay in native lysates of human cancer cells overexpressing ENO2; type: biochemical; design: expressed in transfected cells; host or cells: D423-MG (ENO1-deleted human glioma) with ectopic ENO2
# Procedure: (§2) To compare the effects of isomeric mixtures of MethylSF2312 and SF2312 on Enolase activity, we measured the formation PEP coupled to the oxidation of NADH via LDH/PK on human cancer cells overexpressing ENO2 [4, 14]. […] Here, we favored the direct measurement of PEP absorbance, rather than of NADH, due to the high levels of endogenous NADH oxidase activity in bacterial lysates.
# Native lysates of human cell lines were prepared using 20 mM Tris HCl, 1 mM EDTA, and 1 mM β-mercaptoethanol at pH 7.4 as described previously. Enolase activity was measured using two different methods, either by a fluorometric NADH-linked assay or a direct spectrophotometric assay via formation of PEP. In the fluorescent assay, enolase activity was measured via NADH oxidation in a pyruvate kinase–lactate dehydrogenase coupled assay as previously described. The assay is conducted in 10 mM KCl, 5 mM MgSO4, 100 mM triethanolamine at pH 7.4, with 400 µM NADH and 2 mM ADP. 2-Phosphoglycerate (2-PGA), pyruvate kinase (PK) and lactate dehydrogenase (LDH) are provided in excess, with the conversion of 2-PGA to PEP by enolase being rate limiting. PEP (with ADP) is a substrate of PK; pyruvate formed by this reaction is linked to NADH oxidation by LDH. Enolase activity is determined by measuring oxidation of NADH fluorescently by excitation at 340 nm and emission at 460 nm. The substrate concentration, if not otherwise indicated, was 5 mM 2-PGA. Fluorescence was measured using the Omega Fluorescence Plate Reader (BMG Labtech). Enolase activity was measured in native lysates of E. coli. Overnight grown saturated E. coli (DH5α) liquid culture was pelleted by centrifugation, washed and resuspended in 50 µL of lysis buffer which contains 150 mM NaCl, 50 mM Tris, 1mM EDTA, 2 mM DTT and 0.025% sodium azide. PMSF (10 mM stock solution) was then added to the lysate to make the final concentration 1 mM with 1% sodium deoxycholate. The suspension was incubated at 4 °C with constant mixing. The extract was centrifuged at 4 °C, 14,000 g for 15 min. Enolase activity in E. coli native lysates was measured directly by the appearance of PEP from 2-PGA via absorption at 240 nm. The assay medium was the same, except that all the auxiliary reagents (PK/LDH, NADH, ADP) are omitted. Assays were conducted in a 96-well plated format with the direct assay performed in UV-transmissible plates.
# [4] = biological target: T3, Enolase in Escherichia coli lysates (Escherichia coli, UniProt P0A6P9); assay: Enolase activity in E. coli native lysates, direct measurement of PEP formation at 240 nm; type: biochemical
# T3 construct: Overnight grown saturated E. coli (DH5α) liquid culture was pelleted by centrifugation; endogenous in cells; host or cells: E. coli DH5α
# T3 sequence (P0A6P9 whole entry): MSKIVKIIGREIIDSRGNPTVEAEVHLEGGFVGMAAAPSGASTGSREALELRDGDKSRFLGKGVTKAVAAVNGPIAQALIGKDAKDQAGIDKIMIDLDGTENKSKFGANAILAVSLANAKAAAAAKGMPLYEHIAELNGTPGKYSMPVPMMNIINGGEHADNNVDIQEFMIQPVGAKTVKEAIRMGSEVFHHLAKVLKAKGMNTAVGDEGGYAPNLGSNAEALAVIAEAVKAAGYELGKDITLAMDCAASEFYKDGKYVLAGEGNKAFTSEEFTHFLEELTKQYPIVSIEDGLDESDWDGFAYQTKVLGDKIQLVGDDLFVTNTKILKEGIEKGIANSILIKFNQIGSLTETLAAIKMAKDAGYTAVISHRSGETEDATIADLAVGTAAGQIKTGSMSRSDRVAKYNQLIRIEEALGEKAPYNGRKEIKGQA
# Procedure: as §2
# as §1, with “The extract was centrifuged at 4 °C, 14,000 g for 15 min.” left out, “nm.” for “nm. The assay medium was the same, except that all the auxiliary reagents (PK/LDH, NADH, ADP) are omitted.”
# E. coli (DH5α) = assay: Kirby Bauer disc diffusion antibiotic sensitivity testing; type: cell-based, Escherichia coli; conditions: for zone of inhibition at 35 µg/disc: Escherichia coli, read-out: clear zone of growth inhibition
# Procedure: Finally, the antibiotic activities of SF2312 and MethylSF2312 were compared in E. coli using the disc diffusion method. A 7 mm filter paper disc imbued with 35 µg of either SF2312 or MethylSF2312 was placed on an E. coli lawn on Muller-Hinton Agar. […] Of note, growth inhibition was only observed with the addition of glucose-6-phosphate (G6P).
# Kirby Bauer disc diffusion antibiotic sensitivity testing was performed on Mueller Hinton II Agar (BD #221275) or BBL™ Columbia Agar with 5% Sheep Blood (BD #221165). An overnight overnight-grown saturated E. coli (DH5α) liquid culture was diluted (1:50) in water and streaked on the agar plate to form a bacterial lawn. D-Glucose-6-phosphate (Sigma #G7250) was made in 100 mM stock solution and added to the diluted bacteria to achieve 2 mM final concentration right before streaking the plate. A 7 mm Whatman™ 3MM Chr Chromatography filter paper disc (Whatman # 3030-6189) was imbued with 7 µL of an aqueous solution of inhibitor, placed on the streaked agar plate and incubated overnight at 37 °C.
# [5] = lysates of human cancer cells (D423) overexpressing ENO2, 5 mM 2-PGA, read-out: IC50 for ENO2
compound,measurement,setting,value
C[C@@]1(P(=O)(O)O)CC(O)N(O)C1=O (stereo partly drawn) [(3R)-MethylSF2312],occupancy of the ENO2 active site in the electron density map (in words),ENO2 [1],no evidence of occupancy
same,toxicity towards ENO1-deleted glioma cells (in words),"[2]; even at 400 µM, D423 ENO1-deleted, 7 days",minimal toxicity
same,fold less potent than (3S)-MethylSF2312,"ENO1; ENO1, ratio of IC50 values",2000 fold
same,IC50,ENO1,~15000 nM
same,IC50,"ENO2 [3]; lysates of D423 cells overexpressing ENO2, read-out: IC50 for ENO2",~15000 nM
C[C@]1(P(=O)(O)O)CC(O)N(O)C1=O (stereo partly drawn) [(3S)-MethylSF2312],occupancy of the ENO2 active site in the electron density map (in words),ENO2 [1],"occupied in 3S,5S-configuration"
same,fold greater Enolase inhibitory potency compared to (3R)-MethylSF2312,[4]; E. coli lysates,~ 2000 fold
same,concentration exhibiting toxicity to ENO1-deleted glioma cells,"[2]; D423 ENO1-deleted, 7 days, crystal violet",~ 2 µM
same,IC50,ENO1,~10 nM
same,zone of inhibition (in words),"E. coli (DH5α); 35 µg per disc, Muller Hinton Agar and Blood Agar, with G6P, overnight 37 °C",distinct zone of inhibition
same,IC50,ENO2 [3]; [5],~10 nM
"CC1(P(=O)(O)O)CC(O)N(O)C1=O (stereo not shown) [MethylSF2312, (1,5-dihydroxy-3-methyl-2-oxopyrrolidin-3-yl)phosphonic acid]",IC50,"[4]; direct PEP absorbance at 240 nm, read-out: IC50, Enolase in E. coli lysates",~10 nM
same,toxicity against ENO1-deleted versus ENO1-intact glioma cells (in words),[2],selective toxicity
same,zone of inhibition at 35 µg/disc,"E. coli (DH5α); 7 mm disc with 35 µg, Muller-Hinton Agar, overnight, with glucose-6-phosphate",~24 mm
same,IC50,ENO2 [3]; [5],~10 nM
"O=C1C(P(=O)(O)O)CC(O)N1O (stereo not shown) [SF2312, (1,5-dihydroxy-2-oxopyrrolidin-3-yl)phosphonic acid]",IC50,[4],~10 nM
same,toxicity against ENO1-deleted versus ENO1-intact glioma cells (in words),[2],selective toxicity
same,zone of inhibition at 35 µg/disc,E. coli (DH5α),~24 mm
same,IC50,ENO2 [3],~10 nM
